Laboratory results taken from the supplement of paper PMC10307832.

Key:
Experiment in all cases: relative viability (nuclei count vs DMSO), 5 days (fraction); higher = more cells survive
Erlotinib + Dasatinib = compound: C#Cc1cccc(Nc2ncnc3cc(OCCOC)c(OCCOC)cc23)c1 [Erlotinib] + Cc1nc(Nc2ncc(C(=O)Nc3c(C)cccc3Cl)s2)cc(N2CCN(CCO)CC2)n1 [Dasatinib] (partner 0.075 µM)
Outline: (§1)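 For relative viability, nuclei counts in treated wells were divided by those in vehicle wells. Lung cancer cell lines had been pin-tool dosed in 1536-well plates the day after seeding and cultured for 5 days, then fixed and stained in one step (final 0.05% Triton X-100, 1% formaldehyde, 1 ug/ml Hoechst) and imaged at 4×. Doses were one drug alone or a fixed anchor-drug dose plus five library-drug doses (not always all listed) in √10 steps, and values are duplicate-plate medians.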

Erlotinib + Foretinib = compound: C#Cc1cccc(Nc2ncnc3cc(OCCOC)c(OCCOC)cc23)c1 [Erlotinib] + COc1cc2c(Oc3ccc(NC(=O)C4(C(=O)Nc5ccc(F)cc5)CC4)cc3F)ccnc2cc1OCCCN1CCOCC1 [Foretinib] (partner 0.25 µM)
Outline: as §1

Erlotinib + Crizotinib = compound: C#Cc1cccc(Nc2ncnc3cc(OCCOC)c(OCCOC)cc23)c1 [Erlotinib] + C[C@@H](Oc1cc(-c2cnn(C3CCNCC3)c2)cnc1N)c1c(Cl)ccc(F)c1Cl [Crizotinib] (partner 1 µM)
Outline: as §1

Erlotinib + Decitabine = compound: C#Cc1cccc(Nc2ncnc3cc(OCCOC)c(OCCOC)cc23)c1 [Erlotinib] + Nc1ncn([C@H]2C[C@H](O)[C@@H](CO)O2)c(=O)n1 [Decitabine] (partner 2 µM)
Outline: as §1

Erlotinib + Trametinib = compound: C#Cc1cccc(Nc2ncnc3cc(OCCOC)c(OCCOC)cc23)c1 [Erlotinib] + CC(=O)Nc1cccc(-n2c(=O)n(C3CC3)c(=O)c3c(Nc4ccc(I)cc4F)n(C)c(=O)c(C)c32)c1 [Trametinib] (partner 0.02 µM)
Outline: as §1

Row | Cell Line | relative viability (Erlotinib + Dasatinib; first compound 0.02 µM) | relative viability (Erlotinib + Dasatinib; first compound 0.2 µM) | relative viability (Erlotinib + Dasatinib; first compound 0.6325 µM) | relative viability (Erlotinib + Dasatinib; first compound 2 µM) | relative viability (Erlotinib + Foretinib; first compound 0.02 µM) | relative viability (Erlotinib + Foretinib; first compound 0.2 µM) | relative viability (Erlotinib + Foretinib; first compound 2 µM) | relative viability (Erlotinib + Crizotinib; first compound 0.02 µM) | relative viability (Erlotinib + Crizotinib; first compound 0.2 µM) | relative viability (Erlotinib + Crizotinib; first compound 0.6325 µM) | relative viability (Erlotinib + Crizotinib; first compound 2 µM) | relative viability (Erlotinib + Decitabine; first compound 0.02 µM) | relative viability (Erlotinib + Decitabine; first compound 0.2 µM) | relative viability (Erlotinib + Decitabine; first compound 0.6325 µM) | relative viability (Erlotinib + Decitabine; first compound 2 µM) | relative viability (Erlotinib + Trametinib; first compound 0.02 µM) | relative viability (Erlotinib + Trametinib; first compound 0.2 µM) | relative viability (Erlotinib + Trametinib; first compound 0.6325 µM) | relative viability (Erlotinib + Trametinib; first compound 2 µM) | relative viability (Erlotinib + Foretinib; first compound 0.6325 µM)
1 | SK-MES-1 | 0.338 | 0.175 | 0.177 | 0.156 | 1.03 | 0.635 | 0.357 | 1.06 | 0.725 | 0.524 | 0.38 | 0.393 | 0.345 | 0.31 | 0.27 | 0.494 | 0.345 | 0.347 | 0.312 | 
2 | H3255 | 0.322 | 0.347 | 0.167 | 0.278 | 0.808 | 0.624 | 0.171 | 0.999 | 0.509 | 0.305 | 0.136 |  | 0.433 | 0.244 | 0.168 | 0.632 | 0.412 | 0.326 | 0.214 | 0.472
3 | NCI-H2126 | 0.595 | 0.435 | 0.444 | 0.374 | 1.29 | 1.05 | 0.764 | 1.04 | 0.892 | 0.776 | 0.662 | 0.569 | 0.537 | 0.437 | 0.493 | 0.569 | 0.467 | 0.441 | 0.496 | 0.947
4 | NCI-H1703 |  |  |  |  | 0.33 | 0.419 | 0.357 | 0.592 |  |  | 0.569 |  |  |  |  |  |  |  |  | 0.343
5 | SW 1573 | 0.764 |  | 0.463 | 0.41 | 0.886 | 0.911 | 0.9 | 0.88 | 0.814 | 0.864 | 0.646 |  | 0.511 | 0.495 | 0.576 | 0.568 | 0.557 | 0.526 | 0.474 | 0.895
6 | NCI-H838 | 0.29 | 0.308 | 0.288 | 0.317 | 1.14 | 0.992 |  | 0.953 | 0.838 | 0.907 | 0.693 | 0.507 | 0.48 | 0.488 | 0.465 | 0.587 | 0.431 | 0.586 | 0.509 | 1.09
7 | NCI-H1792 | 0.875 | 0.655 | 0.981 | 0.608 |  |  |  | 1 | 0.931 | 1.06 | 0.801 | 0.634 | 0.482 | 0.505 | 0.477 | 0.435 | 0.423 | 0.47 | 0.446 | 
8 | NCI-H1651 | 0.37 | 0.39 | 0.469 | 0.387 | 0.704 | 0.753 | 0.753 | 0.876 | 0.801 | 0.92 | 0.786 | 0.623 | 0.438 | 0.644 | 0.524 | 0.881 | 0.814 | 0.877 | 0.84 | 
9 | HARA | 0.28 | 0.265 | 0.253 | 0.151 | 0.929 | 0.602 | 0.401 | 1.04 | 0.983 | 0.79 | 0.505 | 0.69 | 0.49 | 0.374 | 0.353 | 0.709 | 0.39 | 0.406 | 0.291 | 0.636
10 | NCI-H1944 | 0.213 | 0.219 | 0.237 | 0.21 | 0.833 | 0.54 | 0.56 | 0.964 | 0.701 | 0.844 | 0.626 | 0.43 | 0.382 | 0.37 | 0.372 | 0.385 | 0.326 | 0.361 | 0.295 | 0.579
11 | SK-LU-1 | 0.185 | 0.211 | 0.186 | 0.164 | 0.961 | 0.975 | 0.699 | 1.26 | 0.914 | 0.834 | 0.727 | 0.661 | 0.707 | 0.634 | 0.592 | 0.495 |  | 0.566 | 0.434 | 0.997
12 | NCI-H650 | 0.38 | 0.456 | 0.526 | 0.425 | 1.03 | 1.02 | 0.924 | 0.735 | 0.803 | 0.903 | 0.662 | 0.34 | 0.313 | 0.303 | 0.307 | 0.964 | 0.985 | 0.919 | 0.963 | 1.19
13 | PC-14 | 0.0626 | 0.0332 | 0.0591 | 0.0181 | 0.76 | 0.23 | 0.153 | 0.651 | 0.278 | 0.23 | 0.224 | 0.194 | 0.142 | 0.151 | 0.145 | 0.185 | 0.0801 | 0.107 | 0.0898 | 0.199
14 | NCI-H2170 | 0.554 | 0.548 | 0.434 | 0.272 | 1.04 | 1.05 | 0.656 | 1.17 | 1.06 | 1.1 | 0.569 | 0.542 | 0.492 | 0.505 | 0.419 | 0.884 | 0.924 | 0.977 | 0.773 | 0.935
15 | CAL-12T | 0.632 | 0.307 | 0.266 | 0.15 | 1.04 | 1.04 | 0.484 | 0.964 | 0.636 | 0.356 | 0.249 |  |  |  |  | 0.334 | 0.279 | 0.31 | 0.173 | 0.513
16 | IA-LM |  |  |  |  | 1.31 | 1.12 | 1.03 | 0.808 | 1 | 0.93 | 0.85 |  |  |  |  |  |  |  |  | 1.19
17 | A-427 | 0.832 | 0.687 | 0.842 | 0.676 | 1.17 | 1.01 | 1.02 | 0.966 | 1.03 | 0.887 | 0.838 | 0.585 | 0.562 | 0.592 | 0.582 | 0.885 | 0.752 | 0.882 | 0.749 | 1.15
18 | PC-3 [JPC-3] | 0.937 | 0.627 | 0.352 | 0.29 | 0.935 | 0.384 | 0.36 | 0.887 | 0.409 | 0.324 | 0.377 | 0.842 | 0.446 | 0.429 | 0.431 | 0.557 | 0.427 | 0.337 | 0.332 | 0.323
